Measurements taken from patent US6348445B1, “Biologically active peptides with reduced toxicity in animals and a method for preparing same” (priority 1992, dated 2002).
Converted amounts (≈) assume the structure as drawn. Where no end group is shown, it is not given here.

What was measured:
[1] = test system: P. aeruginosa strain ATCC 27853; assay type: cell-based
Summary of the method: (§1)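 Broth microdilution per NCCLS M7-T2: final peptide levels 0.25 to 256 μg/ml (twofold steps), inoculum 1-5×10^5 CFUs/ml in full-strength Mueller Hinton broth. MIC read as lowest concentration leaving the well clear after 16-20 hours at 37° C.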

[2] = test system: S. aureus ATCC 29213; assay type: cell-based; settings: ATCC 29213
[3] = test system: E. coli ATCC strain 25922; assay: Minimal Inhibitory Concentration, microtiter broth dilution; assay type: cell-based; settings: for MIC E. coli ATCC 25922: ATCC strain 25922
Summary of the method: as §1

[4] = MTD of repeat-dose intraperitoneal administration; assay type: in vivo, SCID mice; settings: 135 mg/kg/week, three injections per week i.p.
Experimental: Determinations of a maximal tolerated dose (MTD) of repeat-dose intraperitoneal (i.p.) administration of MSI-344 or MSI-1857 in 60 SCID mice were done. Mice were injected with various doses of MSI-344 or MSI-1857 twice or thrice per week. Survival and body weight were monitored. On a twice per week dosing schedule, the MTDs of MSI-344 and MSI-1857 were 12 and 134 mg/kg/week, respectively. […] On a thrice per week dosing schedule, no deaths occurred in any groups, with high dose groups of MSI-344 and MSI-1857 receiving 90 mg/kg/week and […], respectively. A transient body weight loss was seen after initial dosing in most MSI-344 and MSI-1857 groups. No body weight loss greater than 6% occurred in any group on the thrice per week dosing schedule.
To determine estimates of MTDs of MSI-344 and MSI-1857 when administered intraperitoneally on repeat-dose regimens in SCID mice. The selection of SCID mice was based on the future plans of using this strain as host for xenograft human tumor efficacy models, and a pre-requisite for determining MTD for chronic administration that may be used during the efficacy model.
SCID mice are immunocompromised and therefore they were housed and handled in sterile environments. They had access to sterile water and sterilized chow ad lib.
A 1 mg/mL solution of MSI-344 was made in saline (0.9% sodium chloride injection USP, Abbott, North Chicago, Ill.) corrected for peptide content. Solutions of MSI-344 at concentrations of 0.6, 0.3, and 0.1 mg/mL were made by diluting the 1 mg/mL solution using saline as diluent. A 10 mg/mL solution of MSI-1857 was made in saline.
Solutions of MSI-1857 at concentrations of 6.7, 3.3, 3, 2, and 1 mg/mL were made by diluting the 10 mg/mL solution using saline as diluent.
Mice (four mice per dose group) were intraperitoneally administered MSI-344 or MSI-1857 using an injection volume of 10 mL/kg of the appropriate solution concentration on a twice per week (Groups 1 through 7) or thrice per week (Groups 8 through 15) dosing schedule every week for 20 weeks. Survival was monitored daily and body weights were recorded three times per week An interim analysis was performed at 3 weeks and the results of this interim analysis is presented in the present report.

[5] = test system: S. mutans; assay: anaerobic anti-microbial susceptibility test (MIC); assay type: cell-based; set-up: unit not given here; settings: 24-48 hours
[6] = test system: A. viscosus; assay: anaerobic anti-microbial susceptibility test (MIC); assay type: cell-based; settings: 24-48 hours
[7] = test system: P. gingivalis; settings: anaerobic, 24-48 hours
[8] = test system: C. albicans; assay type: cell-based; settings: C. albicans; Table I
Summary of the method: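 Broth microdilution: mid-log organisms at 1-5×10^5 CFU/ml in Mueller Hinton broth exposed to 2-fold peptide series (0.25–256 μg/ml final). After 16-20 h at 37° C, MIC read as the lowest concentration leaving the well clear.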

[9] = test system: S.aureus strain ATCC 25923; assay: Minimal Inhibitory Concentration, microtiter broth dilution; assay type: cell-based; settings: Mueller Hinton broth, 16-20 hours at 37° C.
From the text: Table I, which follows, indicates the Minimal Inhibitory Concentration (MIC) in […] of various peptides against S.aureus strain ATCC 25923(S), P. aeruginosa strain ATCC 27853(P), E. coli ATCC strain 25922(E), and C. 4albicans (CA). […] The peptides are unsubstituted at the N-terminal; substituted with an acetyl group at the N-terminal, as indicated by Ac-; substituted with an octanoyl group at the N-terminal, as indicated by Oct-; substituted with spinogosine, as indicated by Sph-; substituted with a succinyl group, as indicated by Suc-; substituted with a hexanoyl group, as indicated by Hex-; substituted with a heptanoyl group, as indicated by Hep-; substituted with a valeryl group, as indicated by Val-; substituted with a myristryl group, as indicated by Myr-; or substituted with an ibuprofyl group, as indicated by Ibu-;
The procedure for the anti-bacterial assay is based upon the guidelines of the National Committee for Clinical Laboratory Standards, Document M7-T2, Volume 8, No. 8, 1988, which document is entirely incorporated herein by reference.
Stock solutions of peptides, with and without the appropriate substitutions, were prepared at a concentration of 512 μg/ml in sterile deionized distilled water and stored at −70° C.
The stock peptide solution was diluted in serial dilutions (1:2) down the wells of a microtiter plate so that the final concentrations of peptides in the wells were 0.25, 0.50, 1, 2, 4, 8, 16, 32, 64, 128 and 256 μg/ml. 1-5×10^5 CFUs/ml of either S. aureus ATCC 25923, E. coli ATCC 25922, P. aeruginosa ATCC 27853, or C. albicans, were added to the wells in full strength Mueller Hinton broth (BBL 11443) from a mid-log culture. The inoculum was standardized spectrophotometrically at 600 nm and was verified by colony counts. The plates were incubated for 16-20 hours at 37° C., and the minimal inhibitory concentration (MIC) for each peptide was determined. Minimal inhibitory concentration is defined as the lowest concentration of peptide which produces a clear well in the microtiter plate. The minimal inhibitory concentration of each of the peptides with and/or without the appropriate substitutions is given in Table I below.

For `CC[C@H](C)[C@H](NC(=O)CNCS(=O)(=O)O)C(=O)NCC(=O)N[C@@H](CCCCNCS(=O)(=O)O)C(=O)N[C@@H](Cc1ccccc1)C(=O)N[C@@H](CC(C)C)C(=O)N[C@@H](CCCCNCS(=O)(=O)O)C(=O)N[C@@H](CCCCNCS(=O)(=O)O)C(=O)N[C@@H](C)C(=O)N[C@@H](CCCCNCS(=O)(=O)O)C(=O)N[C@@H](CCCCNCS(=O)(=O)O)C(=O)N[C@@H](Cc1ccccc1)C(=O)NCC(=O)N[C@@H](CCCCNCS(=O)(=O)O)C(=O)N[C@@H](C)C(=O)N[C@@H](Cc1ccccc1)C(=O)N[C@H](C(=O)N[C@@H](CCCCNCS(=O)(=O)O)C(=O)N[C@H](C(=O)N[C@@H](CCSC)C(=O)N[C@@H](CCCCNCS(=O)(=O)O)C(=O)N[C@@H](CCCCNCS(=O)(=O)O)C(N)=O)[C@@H](C)CC)C(C)C`, the “MIC P. aeruginosa ATCC 27853” value [1] was 64 µg/mL (≈ 18.6 µM), the “MIC S. aureus ATCC 29213” value [2] was 64 µg/mL (≈ 18.6 µM) and the “MIC E. coli ATCC 25922” value [3] was 128 µg/mL (≈ 37.3 µM).
In the case of `O=S([O-])S(=O)(=O)[O-].[Na+].[Na+]` [Sodium metabisulfite, reference compound], the lethality [4] is reported as “no lethality”.
With “GIGKFLKKAKKFGKAFVKIMKK-NH2 [SEQ ID NO: 155-NH2]” the “MIC P. aeruginosa ATCC 27853” value [1] was 32 µg/mL, the “MIC S. aureus ATCC 29213” value [2] was 16 µg/mL and the “MIC E. coli ATCC 25922” value [3] was 16 µg/mL.
For “H-KIAKKIAKIAKKIAKIAKKIA-OH [(SEQ ID NO: 86)-OH, (Lys Ile Ala Lys Lys Ile Ala)3]”, the “MIC S. mutans” value [5] was 16, the “MIC A. viscos” value [6] was 32 μl/ml and the “MIC P. gingivalis (strain) 9-14K-1” value [7] was 16 μl/ml. For the same molecule, the “MIC P. gingivalis (strain) 381” value [7] was 16 μl/ml, the “MIC P. gingivalis (strain) 450” value [7] was 4 μl/ml and the “MIC P. gingivalis (strain) A7A1-28” value [7] was 4 μl/ml. For the same molecule, the “MIC P. gingivalis (strain) FAY-19M-1” value [7] was 8 μl/ml, the “Minimal Inhibitory Concentration P” value ([1]; P. aeruginosa strain ATCC 27853, Table I) was 32 µg/mL and the “Minimal Inhibitory Concentration CA” value [8] was 256 µg/mL. The “Minimal Inhibitory Concentration S” value [9] was 128 µg/mL and the “Minimal Inhibitory Concentration E” value ([3]; E. coli ATCC strain 25922, Table I) was 2 µg/mL.
